Data published in PMC9181915, “Synthesis and Anti-Neuroinflammatory Activity of 1,7-diphenyl-1,4-heptadien-3-ones in LPS-Stimulated BV2 Microglia Via Inhibiting NF-κB/MAPK Signaling Pathways” (Molecules, 2022).

Experiments:
[1] = test system: LPS-induced NO release in BV2 cells; assay: Inhibition of LPS-induced NO release in BV2 cells; format: cell-based; settings: Mus musculus, BV-2; for inhibition at 3 µM / inhibition at 1 µM: pretreated 1 h, then LPS 1 μg/mL for 24 h, BV2 cells; for IC50: BV2 cells, 0.3, 1.0, 3.0 μM, LPS 1 μg/mL 24 h, mean ± SD, n = 3, read-out: IC50 to inhibit LPS-induced NO release
Method: (§1) The BV2 microglial cells were purchased from the China Center for Type Culture Collection, CCTCC (Wuhan, Hubei). BV2 microglia cells were incubated in DMEM media supplemented with 10% (v/v) FBS, 100 U/mL penicillin G and […] streptomycin at 37 °C with 5% CO2.
Nitrite, a stable product of nitric oxide, was used to assess NO production. To study the effects of the compounds on NO production, BV2 microglia cells in the logarithmic phase were plated at 1 × 10^5 cells/well in a 24-well microplate and incubated in DMEM medium (10% FBS) overnight. The cells were pretreated with various concentrations of the test compounds for 1 h and further co-cultured with 1 μg/mL LPS and 5% CO2 for 24 h in a 37 °C incubator; then, the supernatant was taken and stored at −20 °C for NO detection. The target compound and LPS were configured with DMEM medium (2% FBS). The determination of NO was carried out according to the instructions. Unpretreated and unstimulated BV2 microglia cells were conducted as the blank control group. The absorbance value was determined at 540 nm, and the corresponding NO content was calculated by using the standard curve. The NO inhibitory rate of the various concentrations of agents in BV2 cells was calculated as per the following formula:Inhibition rate (%) = (LPS(NO concentration) − sample(NO concentration))/(LPS(NO concentration) − negative control(NO concentration)) × 100%.

[2] = MTT cell viability assay in BV2 microglia cells; format: cell-based; settings: mouse, mean ± SD, n = 3
Method: as §1
Cell viability assays were evaluated using a 3-(4,5-dimethylthiazol-2-yl)-2,5-diphenyltetrazolium bromide (MTT) assay. BV2 microglia cells were seeded in 96-well plates at a density of 1.6 × 10^5 cells/well in complete medium and incubated for 24 h. Then, the culture medium was sucked and discarded, and sterile PBS was added for washing, and then PBS was removed. Then the cells were treated with different concentrations of target compounds for 24 h. An amount equal to 100 μL of MTT was added to each well and the cells were further incubated for 2–4 h. An amount equal to 150 μL of DMSO was added into a 96-well plate and vibrated with micro-oscillator for 10 min. The optical density (A) was measured at […] on a microplate reader. The inhibitory rate of the various concentrations of agents in BV2 cells was calculated using the following formula:Cell viability (%) = [A492 (sample) − A492 (blank)]/[A492 (control) − A492 (blank)] × 100%

Row | SMILES | melting point [°C] | inhibition at 3 µM [1] [%] | viability at 24 h, 1 µM [2] [%] | viability at 24 h, 3 µM [2] [%] | viability at 24 h, 10 µM [2] [%] | inhibition at 1 µM [1] [%] | IC50 [1] [µM]
1 | COc1ccc(CC/C=C/C(=O)/C=C/c2ccc(O)cc2)cc1 [CU-13, (1E,4E)-1-(4-hydroxyphenyl)-7-(4-methoxyphenyl)-1,4-heptadien-3-one] | 136 to 138 | 0 | 109.5 ± 0.27 | 91.4 ± 0.32 | 28.5 ± 1.3 |  | 
2 | O=C(/C=C/CCc1ccc(O)cc1)/C=C/c1ccc(O)cc1 [CU-1, (1E,4E)-1,7-bis(4-hydroxyphenyl)-1,4-heptadien-3-one] |  |  | 88.07 ± 0.19 | 49.84 ± 0.27 | 23.7 ± 0.38 | 0 | 
3 | O=C(/C=C/CCc1ccccc1)/C=C/c1ccccc1 [CU-15, (1E,4E)-1,7-diphenyl-1,4-heptadien-3-one] |  | 13.7 | 104.99 ± 0.03 | 103.11 ± 0.03 | 84.19 ± 0.21 |  | 
4 | COc1cc(/C=C/C(=O)/C=C/CCc2ccccc2)ccc1O [CU-9, (1E,4E)-1-(4-hydroxy-3-methoxyphenyl)-7-phenyl-1,4-heptadien-3-one] | 114 to 116 | 7.52 | 99.38 ± 0.01 | 94.65 ± 0.07 | 14.8 ± 0.75 |  | 
5 | COc1ccc(/C=C/C(=O)/C=C/CCc2ccc(O)cc2)cc1O [CU-18, (1E,4E)-1-(3-hydroxy-4-methoxyphenyl)-7-(4-hydroxyphenyl)-1,4-heptadien-3-one] | 152 to 154 |  | 96.14 ± 0.03 | 46.6 ± 1.16 | 8.63 ± 0.373 | 2.15 | 
6 | O=C(/C=C/CCc1cccc(O)c1)/C=C/c1ccccc1 [CU-24, (1E,4E)-7-(3-hydroxyphenyl)-1-phenyl-1,4-heptadien-3-one] | 70 to 72 | 0 | 103.49 ± 0.02 | 91.48 ± 0.07 | 23.17 ± 0.09 |  | 
7 | COc1ccc(/C=C/C(=O)/C=C/CCc2ccccc2)cc1 [CU-3, (1E,4E)-7-phenyl-1-(4-methoxyphenyl)-1,4-heptadien-3-one] | 48 to 50 | 35.2 | 106.7 ± 0.14 | 101.55 ± 0.01 | 98.5 ± 0.01 |  | 
8 | O=C(/C=C/CCc1ccccc1)/C=C/c1ccc(Cl)cc1 [CU-10, (1E,4E)-1-(4-chlorophenyl)-7-phenyl-1,4-heptadien-3-one] | 70 to 72 | 0 | 95.54 ± 0.03 | 95.27 ± 0.16 | 48.7 ± 2.93 |  | 
9 | COc1cc(CC/C=C/C(=O)/C=C/c2ccccc2)ccc1O [CU-26, (1E,4E)-7-(4-hydroxy-3-methoxyphenyl)-1-phenyl-1,4-heptadien-3-one] | 72 to 74 | 37.6 | 107.17 ± 0.07 | 96.83 ± 0.02 | 12.8 ± 0.14 |  | 
10 | COc1cc(/C=C/C(=O)/C=C/CCc2ccc(O)c(OC)c2)ccc1O [CU-20, (1E,4E)-1,7-bis(4-hydroxy-3-methoxyphenyl)-1,4-heptadien-3-one] | 103 to 105 |  | 97.31 ± 0.03 | 51.8 ± 0.6 | 12.2 ± 0.21 | 16.9 | 
11 | COc1cc(CC/C=C/C(=O)/C=C/c2ccc(O)cc2)ccc1O [CU-12, (1E,4E)-7-(4-hydroxy-3-methoxyphenyl)-1-(4-hydroxyphenyl)-1,4-heptadien-3-one] |  |  | 92.03 ± 0.29 | 75.55 ± 0.17 | 12.7 ± 0.59 | 0 | 
12 | O=C(/C=C/CCc1ccc(O)cc1)/C=C/c1ccccc1 [CU-25, (1E,4E)-7-(4-hydroxyphenyl)-1-phenyl-1,4-heptadien-3-one] | 75 to 77 | 0 | 128.6 ± 0.14 | 96.93 ± 0.01 | 20.3 ± 0.59 |  | 
13 | O=C(/C=C/CCc1ccccc1)/C=C/c1cccc(O)c1 [CU-6, (1E,4E)-1-(3-hydroxyphenyl)-7-phenyl-1,4-heptadien-3-one] | 94 to 96 | 22.1 | 106.85 ± 0.1 | 100.07 ± 0.01 | 101.56 ± 0.03 |  | 
14 | COc1cc(/C=C/C(=O)/C=C/CCc2ccc(O)cc2)ccc1O [CU-17, (1E,4E)-1-(4-hydroxy-3-methoxyphenyl)-7-(4-hydroxyphenyl)-1,4-heptadien-3-one] | 141 to 143 |  | 99.36 ± 0.01 | 80.72 ± 0.2 | 32.4 ± 0.67 | 0 | 
15 | O=C(/C=C/CCc1ccc(Cl)cc1)/C=C/c1ccccc1 [CU-28, (1E,4E)-7-(4-chlorophenyl)-1-phenyl-1,4-heptadien-3-one] | 48 to 50 | 33.6 | 95.71 ± 0.07 | 94.75 ± 0.05 | 81.65 ± 0.22 |  | 
16 | COc1cc(/C=C/C(=O)/C=C/CCc2ccccc2)cc(OC)c1OC [CU-4, (1E,4E)-7-phenyl-1-(3,4,5-trimethoxyphenyl)-1,4-heptadien-3-one] | 95 to 97 |  | 107.23 ± 0.09 | 73.92 ± 0.3 | 16.6 ± 0.45 | 3.1 | 
17 | COc1ccc(/C=C/C(=O)/C=C/CCc2ccc(OC)c(OC)c2)cc1OC [CU-2, (1E,4E)-1,7-bis(3,4-dimethoxyphenyl)-1,4-heptadien-3-one] | 97 to 99 |  | 76.92 ± 0.19 | 49.2 ± 0.92 | 10.6 ± 1.13 | 0 | 
18 | Cc1ccc(CC/C=C/C(=O)/C=C/c2ccccc2)cc1 [CU-22, (1E,4E)-1-phenyl-7-(p-tolyl)-1,4-heptadien-3-one] | 62 to 64 | 48.2 | 95.14 ± 0.05 | 88.76 ± 0.06 | 46.6 ± 0.59 |  | > 3
19 | Cc1ccc(/C=C/C(=O)/C=C/CCc2ccccc2)cc1 [CU-16, (1E,4E)-7-phenyl-1-(p-tolyl)-1,4-heptadien-3-one] | 46 to 48 | 15.4 | 95 ± 0.08 | 88.57 ± 0.28 | 33.3 ± 1.2 |  | 
20 | COc1ccc(/C=C/C(=O)/C=C/CCc2ccc(OC)cc2)cc1 [CU-14, (1E,4E)-1,7-bis(4-methoxyphenyl)-1,4-heptadien-3-one] | 65 to 67 | 49.7 | 97.96 ± 0.01 | 97.44 ± 0.03 | 18.06 ± 0.1 |  | 2.43 ± 0.45
21 | O=C(/C=C/CCc1ccccc1)/C=C/c1ccc(O)cc1 [CU-7, (1E,4E)-1-(4-hydroxyphenyl)-7-phenyl-1,4-heptadien-3-one] | 121 to 123 |  | 93.46 ± 0.35 | 52.8 ± 0.5 | 14.3 ± 0.7 | 0 | 
22 | COc1ccc(CC/C=C/C(=O)/C=C/c2ccccc2)cc1OC [CU-23, (1E,4E)-7-(3,4-dimethoxyphenyl)-1-phenyl-1,4-heptadien-3-one] |  | 31.4 | 106.5 ± 0.14 | 100.85 ± 0.01 | 12.3 ± 0.84 |  | 
23 | Cc1ccc(CC/C=C/C(=O)/C=C/c2ccc(O)cc2)cc1 [CU-11, (1E,4E)-1-(4-hydroxyphenyl)-7-(p-tolyl)-1,4-heptadien-3-one] | 132 to 134 | 0 | 99.17 ± 0.01 | 91.61 ± 0.09 | 11.2 ± 0.56 |  | 
24 | O=C(/C=C/CCc1ccccc1)/C=C/c1ccccc1O [CU-5, (1E,4E)-1-(2-hydroxyphenyl)-7-phenyl-1,4-heptadien-3-one] | 134 to 136 |  | 95.68 ± 0.11 | 77.39 ± 0.3 | 15.9 ± 0.61 | 0 | 
25 | COc1cc(CC/C=C/C(=O)/C=C/c2ccccc2)cc(OC)c1OC [CU-27, (1E,4E)-1-phenyl-7-(3,4,5-trimethoxyphenyl)-1,4-heptadien-3-one] |  | 7.02 | 116.1 ± 0.44 | 101.31 ± 0.03 | 38.9 ± 1.19 |  | 
